Laboratory results published in US9422263B2, “Fluoro-substituted 3,5-dicyano-4-(1H-indazol-5-yl)-2,6-dimethyl-1,4-dihydropyridine derivatives and methods of use thereof” (BAYER PHARMA AKTIENGESELLSCHAFT, priority 2009, dated 2016).
Where two headings read alike, the source gives them in different places.

What was measured:
[1] = Caco-2 permeability assay; assay type: in vitro ADME; conditions: human, apical to basolateral, 2 h at 37° C.
From the text: Caco-2 Permeability Assay:
The in vitro permeation of a test compound across a Caco-2 cell monolayer is a well-established assay system to predict the permeability from the gastro-intestinal tract [cf. P. Artursson and J. Karlsson: Correlation between oral drug absorption in humans and apparent drug permeability coefficients in human intestinal epithelial (Caco-2) cells, Biochem. Biophys. 175 (3), 880-885 (1991)]. The permeability of the compounds of the present invention in such Caco-2 cells was determined as described below:
Human caco-2 cells (ACC No. 169, DSMZ, German Collection of Microorganisms and Cell Cultures, Braunschweig, Germany) are seeded on 24-well insert plates and are allowed to grow for 14-16 days. For permeability studies, the test compounds are dissolved in DMSO and diluted to the final test concentration of 2 μM with transport buffer [Hanks' Buffered Salt Solution, Gibco/Invitrogen, further supplemented with glucose (final concentration 19.9 mM) and HEPES (final concentration 9.8 mM)]. For determination of the apical to basolateral permeability (PappA-B), the test compound solution is added to the apical side of the cell monolayer and transport buffer to the basolateral side of the monolayer; for determination of the basolateral to apical permeability (PappB-A), the test compound solution is added to the basolateral side of the cell monolayer and transport buffer to the apical side of the monolayer. Samples are taken from the donor compartment at the beginning of the experiment to confirm mass balance. After an incubation of 2 h at 37° C., samples are taken from both compartments. Samples are analyzed by LC-MS/MS, and the apparent permeability coefficients are calculated. Lucifer Yellow permeability is assayed for each cell monolayer to ensure cell monolayer integrity, and the permeability of Atenolol (low permeability marker) and Sulfasalazine (marker for active excretion) is determined for each batch as quality control.

[2] = Pharmacokinetics after intravenous administration of test compounds; assay type: in vivo, rat; conditions: for in vivo PK, rat i.v. CLblood: male Wistar rats, total blood clearance; for in vivo PK, rat i.v. Fmax, calc: Fmax,calc=[1−CLblood/Qh]*100, Qh 4.2 L per h per kg
Method: Pharmacokinetics after Intravenous Administration of Test Compounds: Male Wistar rats (Harlan Laboratories) are anesthetized and a catheter is inserted into the jugular vein of the rat. The next day, a defined dose of the test compound is administered as solution by injection into the tail vein. Blood samples are collected through the jugular catheter during the next 24 h (8-11 time points). Blood is centrifuged in heparin-tubes, and each plasma sample is treated with acetonitrile for protein precipitation. After centrifugation, the test compound in the supernatant is quantified using an LC-MS/MS method. The determined plasma concentrations are used for the calculation of pharmacokinetic parameters, such as AUC (area under the plasma concentration vs. time curve), Vss (volume of distribution under steady-state conditions), Cmax (highest test compound concentration observed in plasma following administration), t1/2 (half-life) and CL (total clearance of the test compound from the plasma). For the calculation of the blood clearance, the blood to plasma partitioning is determined by incubation of the test compound in blood of rats. After separation of the plasma by centrifugation, the concentration in the plasma is determined by an LC-MS/MS method. Under the assumption that the test compound is completely absorbed, the theoretically maximum achievable bioavailability Fmax,calc is calculated by the equation Fmax,calc=[1−CLblood/Qh]*100, wherein CLblood is the total blood clearance and Qh is the hepatic blood flow in rat of 4.2 L per h per kg.

[3] = Pharmacokinetics after peroral administration of test compounds; assay type: in vivo, rat; conditions: for in vivo PK, rat p.o. F / in vivo PK, rat p.o. AUCnorm: male Wistar rats; for in vivo PK, rat p.o. F: bioavailability; for in vivo PK, rat p.o. AUCnorm: dose and body weight-normalized AUC; for Fraction absorbed fabs, calc: rat p.o., fabs,calc=[F/Fmax,calc]*100
Method: Pharmacokinetics after Peroral Administration of Test Compounds: Male Wistar rats (Harlan Laboratories) are anesthetized and a catheter is inserted into the jugular vein of the rat. The next day, a defined dose of the test compound is administered perorally. Blood samples are collected through the jugular catheter during the next 24 h (8-11 time points). Blood is centrifuged in heparin-tubes, and each plasma sample is treated with acetonitrile for protein precipitation. After centrifugation, the test compound in the supernatant is quantified using an LC-MS/MS method. The determined plasma concentrations are used for the determination of pharmacokinetic parameters, such as AUC (area under the plasma concentration vs. time curve), Cmax (highest test compound concentration observed in plasma following administration), t1/2 (half-life) and F (bioavailability). The fraction of the dose absorbed (fabs,calc) is calculated by the equation fabs,calc=[F/Fmax,calc]*100, wherein F is the determined bioavailability after peroral administration and Fmax,calc is the theoretically maximum achievable bioavailability considering the determined blood clearance and assuming that the test compound is completely absorbed.

[4] = molecular target: Recombinant human c-Met protein (Homo sapiens (Human), UniProt P08581); test: c-Met receptor tyrosine kinase activity assay (NADH read-out); assay type: biochemical; conditions: ATP 30 μM, c-Met 30 nM
Method: c-Met Receptor Tyrosine Kinase Activity Assay (NADH Read-Out):
Recombinant human c-Met protein (Invitrogen, Carlsbad, Calif., USA) is used. As substrate for the kinase reaction the peptide KKKSPGEYVNIEFG (JPT, Germany) is used. For the assay, 1 μL of a 51-fold concentrated solution of the test compound in DMSO is pipetted into a white 384-well microtiter plate (Greiner Bio-One, Frickenhausen, Germany). 25 μL of a solution of c-Met (final concentration 30 nM) and pyruvate kinase/lactate dehydrogenase (Roche Diagnostics, Mannheim, Germany; final concentration 8 mg/L) in assay buffer [3-(N-morpholino)propanesulfonic acid (MOPS), 50 mM, pH 7; MgCl2, 10 mM; bovine serum albumin (BSA), 0.01%; Triton X 100, 0.01%; DTT, 2 mM] are added, and the mixture is incubated for 5 min at room temperature. Then, the kinase reaction is started by the addition of 25 μL of a solution of adenosine triphosphate (ATP, final concentration 30 μM), substrate (final concentration 100 μM), nicotinamide adenine dinucleo-tide (NADH, final concentration 50 μM) and dithiothreitol (DTT, final concentration 2 mM) in assay buffer, and the resulting mixture is incubated for a reaction time of 100 min at 32° C.
Subsequently, the amount of phosphorylated substrate is evaluated by measurement of the decrease of NADH fluorescence. Therefore, the fluorescence emissions at 465 nm after excitation at 340 nm is measured in a fluorescence reader, e.g. Tecan Ultra (Tecan, Männedorf, Switzerland). The data are normalised (enzyme reaction without inhibitor=0% inhibition; all other assay components but no enzyme=100% inhibition).

[5] = Table 3, read-out: Caco-2 permeability PappA-B
[6] = Table 4, read-out: Caco-2 permeability PappA-B

Recombinant human c-Met protein, sequence (P08581 25-1390): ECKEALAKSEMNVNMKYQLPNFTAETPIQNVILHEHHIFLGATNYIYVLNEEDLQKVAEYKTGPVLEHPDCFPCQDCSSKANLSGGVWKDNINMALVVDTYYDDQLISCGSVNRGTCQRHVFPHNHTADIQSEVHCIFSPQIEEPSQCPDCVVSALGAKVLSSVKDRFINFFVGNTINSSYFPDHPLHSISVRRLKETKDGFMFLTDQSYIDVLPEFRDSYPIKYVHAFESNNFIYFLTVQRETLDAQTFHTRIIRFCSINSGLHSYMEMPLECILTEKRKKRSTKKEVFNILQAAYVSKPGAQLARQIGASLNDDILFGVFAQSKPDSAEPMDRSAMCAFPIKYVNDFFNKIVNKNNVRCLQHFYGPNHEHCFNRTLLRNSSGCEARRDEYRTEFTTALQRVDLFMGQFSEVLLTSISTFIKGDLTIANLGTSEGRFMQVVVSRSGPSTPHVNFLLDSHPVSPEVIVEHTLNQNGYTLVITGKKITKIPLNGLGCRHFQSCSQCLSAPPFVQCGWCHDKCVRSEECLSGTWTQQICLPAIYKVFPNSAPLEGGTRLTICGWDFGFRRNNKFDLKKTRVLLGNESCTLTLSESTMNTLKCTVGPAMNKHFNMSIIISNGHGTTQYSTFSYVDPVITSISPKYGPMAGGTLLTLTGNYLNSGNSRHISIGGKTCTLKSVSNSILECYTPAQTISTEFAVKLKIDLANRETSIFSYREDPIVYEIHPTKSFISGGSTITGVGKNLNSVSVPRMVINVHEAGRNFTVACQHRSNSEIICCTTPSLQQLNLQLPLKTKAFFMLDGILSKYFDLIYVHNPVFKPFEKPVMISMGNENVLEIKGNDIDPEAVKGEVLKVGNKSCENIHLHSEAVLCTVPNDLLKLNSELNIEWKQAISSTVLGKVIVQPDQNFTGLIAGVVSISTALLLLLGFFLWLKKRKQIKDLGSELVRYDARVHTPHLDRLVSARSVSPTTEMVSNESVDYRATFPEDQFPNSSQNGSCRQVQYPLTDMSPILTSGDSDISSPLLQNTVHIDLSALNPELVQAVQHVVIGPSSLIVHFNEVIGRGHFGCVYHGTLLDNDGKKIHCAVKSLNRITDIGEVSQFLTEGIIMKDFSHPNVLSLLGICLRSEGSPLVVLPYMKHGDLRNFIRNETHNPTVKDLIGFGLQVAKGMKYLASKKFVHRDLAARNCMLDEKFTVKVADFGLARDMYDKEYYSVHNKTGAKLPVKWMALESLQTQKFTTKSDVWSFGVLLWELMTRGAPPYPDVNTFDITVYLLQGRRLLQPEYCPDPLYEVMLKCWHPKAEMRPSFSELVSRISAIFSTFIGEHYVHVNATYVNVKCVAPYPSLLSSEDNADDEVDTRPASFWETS

Compound	Papp at 2 h, 2 μM [1, 5]	in vivo PK, rat i.v. CLblood [2]	in vivo PK, rat i.v. Fmax, calc [2]	in vivo PK, rat p.o. F [3]	Fraction absorbed fabs, calc [3]	Papp at 2 h, 2 μM [1, 6]	IC50 [4]	in vivo PK, rat p.o. AUCnorm [3]
CC1=C(C#N)C(c2cc3c(C)n[nH]c3cc2F)C(C#N)=C(C(F)F)N1 (racemic) [Example 7, rac-2-(Difluoromethyl)-4-(6-fluoro-3-methyl-1H-indazol-5-yl)-6-methyl-1,4-dihydropyridine-3,5-dicarbonitrile]	22 ×10⁻⁶ cm/s	26.7 mL/min/kg	62%	68%	109%			0.69 kg·h/L
CC1=C(C#N)C(c2cc3cn[nH]c3cc2F)C(C#N)=C(C(F)F)N1 (racemic) [Example 16, rac-2-(Difluoromethyl)-4-(6-fluoro-1H-indazol-5-yl)-6-methyl-1,4-dihydropyridine-3,5-dicarbonitrile]						22.6 ×10⁻⁶ cm/s		
CC1=C(C#N)C(c2cc3cn[nH]c3cc2F)C(C#N)=C(C(F)(F)F)N1 (racemic) [Example 19, rac-4-(6-Fluoro-1H-indazol-5-yl)-2-methyl-6-(trifluoromethyl)-1,4-dihydropyridine-3,5-dicarbonitrile]	17.6 ×10⁻⁶ cm/s	36.5 mL/min/kg	48%	40%	84%			0.33 kg·h/L
CC1=C(C#N)C(c2ccc3[nH]ncc3c2)C(C#N)=C(C(F)(F)F)N1 (racemic) [Example 20, rac-4-(1H-Indazol-5-yl)-2-methyl-6-(trifluoromethyl)-1,4-dihydropyridine-3,5-dicarbonitrile]						20 ×10⁻⁶ cm/s	27 nM	
CC1=C(C#N)C(c2ccc3[nH]nc(C)c3c2)C(C#N)=C(C(F)(F)F)N1 (single isomer, unassigned) [Example 5]							12 nM	
CC1=C(C#N)C(c2cc3c(C)n[nH]c3cc2F)C(C#N)=C(C(F)F)N1 (single isomer, unassigned) [Example 8, 2-(Difluoromethyl)-4-(6-fluoro-3-methyl-1H-indazol-5-yl)-6-methyl-1,4-dihydropyridine-3,5-dicarbonitrile]							9 nM	
CC1=C(C#N)C(c2cc3c(C)n[nH]c3cc2F)C(C#N)=C(C(F)(F)F)N1 (single isomer, unassigned) [Example 12, 4-(6-Fluoro-3-methyl-1H-indazol-5-yl)-2-methyl-6-(trifluoromethyl)-1,4-dihydropyridine-3,5-dicarbonitrile]	18.7 ×10⁻⁶ cm/s	13.2 mL/min/kg	81%	48%	59%			1.1 kg·h/L
CC1=C(C#N)C(c2cc3cn[nH]c3cc2F)C(C#N)=C(C(F)F)N1 (single isomer, unassigned) [Example 17, 2-(Difluoromethyl)-4-(6-fluoro-1H-indazol-5-yl)-6-methyl-1,4-dihydropyridine-3,5-dicarbonitrile]							11 nM	
Cc1n[nH]c2ccc(C3C(C#N)=C(C(F)F)NC(C(F)F)=C3C#N)cc12 [Example 13, 2,6-Bis(difluoromethyl)-4-(3-methyl-1H-indazol-5-yl)-1,4-dihydropyridine-3,5-dicarbonitrile]	39.3 ×10⁻⁶ cm/s	2.83 mL/min/kg	96%	70%	73%			6.16 kg·h/L
N#CC1=C(C(F)F)NC(C(F)F)=C(C#N)C1c1cc2cn[nH]c2cc1F [Example 15, 2,6-Bis(difluoromethyl)-4-(6-fluoro-1H-indazol-5-yl)-1,4-dihydropyridine-3,5-dicarbonitrile]	16.9 ×10⁻⁶ cm/s	3.83 mL/min/kg	95%	63%	66%			3.87 kg·h/L

Further lines, with some results ahead:

Papp at 2 h, 2 μM [1, 5]	in vivo PK, rat i.v. CLblood [2]	in vivo PK, rat i.v. Fmax, calc [2]	in vivo PK, rat p.o. F [3]	Fraction absorbed fabs, calc [3]	Papp at 2 h, 2 μM [1, 6]	IC50 [4]	Compound	in vivo PK, rat p.o. AUCnorm [3]
					38.8 ×10⁻⁶ cm/s		CC1=C(C#N)C(c2ccc3[nH]nc(C)c3c2)C(C#N)=C(C(F)(F)F)N1C (racemic) [Example 42, rac-1,2-Dimethyl-4-(3-methyl-1H-indazol-5-yl)-6-(trifluoromethyl)-1,4-dihydropyridine-3,5-dicarbonitrile]	
						9 nM	CC1=C(C#N)C(c2ccc3[nH]nc(C)c3c2)C(C#N)=C(C(F)(F)F)N1C (single isomer, unassigned) [Example 43, 1,2-Dimethyl-4-(3-methyl-1H-indazol-5-yl)-6-(trifluoromethyl)-1,4-dihydropyridine-3,5-dicarbonitrile]	
						8 nM	CC1=C(C#N)C(c2ccc3[nH]nc(C)c3c2)C(C#N)=C(C(F)(F)F)N1C (single isomer, unassigned) [Example 44, 1,2-Dimethyl-4-(3-methyl-1H-indazol-5-yl)-6-(trifluoromethyl)-1,4-dihydropyridine-3,5-dicarbonitrile]	
					20.2 ×10⁻⁶ cm/s	28 nM	N#CC1=C(C(F)F)NC(C(F)F)=C(C#N)C1c1ccc2[nH]ncc2c1 [Example 24, 2,6-Bis(difluoromethyl)-4-(1H-indazol-5-yl)-1,4-dihydropyridine-3,5-dicarbonitrile]	
					29 ×10⁻⁶ cm/s		CCc1n[nH]c2ccc(C3C(C#N)=C(C(F)F)NC(C(F)F)=C3C#N)cc12 [Example 25, 2,6-Bis(difluoromethyl)-4-(3-ethyl-1H-indazol-5-yl)-1,4-dihydropyridine-3,5-dicarbonitrile]	
					34.8 ×10⁻⁶ cm/s		Cc1n[nH]c2ccc(C3C(C#N)=C(C(F)(F)F)NC(C(F)(F)F)=C3C#N)cc12 [Example 26, 4-(3-Methyl-1H-indazol-5-yl)-2,6-bis(trifluoromethyl)-1,4-dihydropyridine-3,5-dicarbonitrile]	
